From patent US20250109151A1, “SILYL-LIPID N-ACYL L-HOMOSERINE LACTONES AS QUORUM SENSING MOLECULES” (The Regents of the University of California, priority 2022, published 2025)

Tests used:
LasR [1] = molecular target: T1, LasR (Pseudomonas aeruginosa, UniProt P25084); assay: cell-based; details: for Emax: read-out: Maximum Activation (%); for designation of the sample in the LasR agonism table: words in brackets after the sample code
T1 construct: expressed in transfected cells; host or cells: E. coli (reporter strain)
T1 sequence (P25084 whole entry): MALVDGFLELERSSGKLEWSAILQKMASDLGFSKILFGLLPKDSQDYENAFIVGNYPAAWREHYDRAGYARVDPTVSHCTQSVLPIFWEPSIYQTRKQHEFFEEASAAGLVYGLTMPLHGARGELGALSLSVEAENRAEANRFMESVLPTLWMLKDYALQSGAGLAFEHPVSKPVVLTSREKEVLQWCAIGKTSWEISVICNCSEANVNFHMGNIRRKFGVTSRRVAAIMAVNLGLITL
Procedure: 15 compounds were assayed for LasR agonism using a beta-glo reporter assay in E. coli.

LasR [2] = molecular target: T1, LasR; assay: LasR antagonism assay; format: cell-based; details: for Emax: read-out: Maximum Activation (%)
Procedure: 3 compounds were assayed for LasR antagonism.
The IC50, […], and Max Activation for each sample is reported below.

[3] = cited from earlier work
TNF-α release = details: LPS-induced model, at 30 min; cited from earlier work

Row | Structure (SMILES) | Emax (LasR [1]) [%] | also measured
1 | CCCCCCCC[Si](C)(C)CCCCC(=O)N[C@H]1CCOC1=O [KMM 5-55-2, (S)-5-(dimethyl(octyl)silyl)-N-(2-oxotetrahydrofuran-3-yl)pentanamide] | 101 | 
2 | CCCC[Si](CCCC)(CCCC)CCCCC(=O)N[C@H]1CCOC1=O [LSD 2-65, (S)-N-(2-oxotetrahydrofuran-3-yl)-5-(tributylsilyl)pentanamide] | 79.8 | 
3 | CCCCCCCC[Si](C)(C)CCCCCCC(=O)N[C@H]1CCOC1=O [LSD 1-59, (S)-7-(dimethyl(octyl)silyl)-N-(2-oxotetrahydrofuran-3-yl)heptanamide] | 25 | designation of the sample in the LasR agonism table (LasR [1]): LSD 1-59 (inactive)
4 | CC[Si](CC)(CC)CCCCC(=O)N[C@H]1CCOC1=O [KMM 5-56-2, (S)-N-(2-oxotetrahydrofuran-3-yl)-5-(triethylsilyl)pentanamide] | 94.3 | 
5 | C[Si](C)(c1ccccc1)c1ccc(CC(=O)N[C@H]2CCOC2=O)cc1 [LSD 133, (S)-2-(4-(dimethyl(phenyl)silyl)phenyl)-N-(2-oxotetrahydrofuran-3-yl)acetamide] | 9 | EC50 (LasR [1]): 0.015 µM; designation of the sample in the LasR agonism table (LasR [1]): LSD 133 (antagonist); IC50 (LasR [2]): 14.6 µM; Emax (LasR [2]): 97.2%
6 | C[Si](C)(CCCCC(=O)CC(=O)N[C@H]1CCOC1=O)c1ccccc1 [LSD 2-113, (S)-7-(dimethyl(phenyl)silyl)-3-oxo-N-(2-oxotetrahydrofuran-3-yl)heptanamide] | 106 | 
7 | C[Si]1(C)CC(C(=O)O)N(C(=O)OCC2c3ccccc3-c3ccccc32)C1 (stereo not drawn) [Fmoc-Sip] |  | Log P [3]: 1.3
8 | CCCC[Si](C)(C)CCCCCCC(=O)N[C@H]1CCOC1=O [LSD 1-35, (S)-7-(butyldimethylsilyl)-N-(2-oxotetrahydrofuran-3-yl)heptanamide] | 90.4 | 
9 | CCCC[Si](C)(C)c1ccc(CC(=O)N[C@H]2CCOC2=O)cc1 [LSD 137, (S)-2-(4-(butyldimethylsilyl)phenyl)-N-(2-oxotetrahydrofuran-3-yl)acetamide] | 14.1 | designation of the sample in the LasR agonism table (LasR [1]): LSD 137 (antagonist); IC50 (LasR [2]): 9.3 µM; Emax (LasR [2]): 101%
10 | C[Si](C)(CCCCCCC(=O)N[C@H]1CCOC1=O)c1ccccc1 [LSD 2-47, (S)-7-(dimethyl(phenyl)silyl)-N-(2-oxotetrahydrofuran-3-yl)heptanamide] | 99.7 | 
11 | CCCC[Si](C)(C)CCCCC(=O)N[C@H]1CCOC1=O [LSD 1-34, (S)-5-(butyldimethylsilyl)-N-(2-oxotetrahydrofuran-3-yl)pentanamide] | 101 | 
12 | Cc1ccc(-n2nc(C(C)(C)C)cc2NC(=O)Nc2ccc(OCCN3CCOCC3)c3ccccc23)cc1 [BIRB-796] |  | TNF-α suppression (TNF-α release): 41%
13 | C[Si](C)(C)O[Si](C)(C)CCCCC(=O)N[C@H]1CCOC1=O [LSD 2-120, (S)-N-(2-oxotetrahydrofuran-3-yl)-5-(1,1,3,3,3-pentamethyldisiloxaneyl)pentanamide] | 94 | 
14 | C[Si](C)(CCCCC(=O)N[C@H]1CCOC1=O)c1ccccc1 [LSD 1-32, (S)-5-(dimethyl(phenyl)silyl)-N-(2-oxotetrahydrofuran-3-yl)pentanamide] | 96.1 | 
15 | O=C(O)[C@@H]1CCCN1C(=O)OCC1c2ccccc2-c2ccccc21 [Fmoc-Pro] |  | Log P [3]: 0.094
16 | CC[Si](CC)(CC)CCCCC(=O)CC(=O)N[C@H]1CCOC1=O [LSD-92, (S)-3-oxo-N-(2-oxotetrahydrofuran-3-yl)-7-(triethylsilyl)heptanamide] | 86 | 
